In one data set the test system is resorufin-labeled casein. Nature of the data set: Detection of proteolytic activity with resorufin-labeled casein. The format is biochemical. Particulars: culture media conditioned by cells, in all cases. The protocol:
Evaluation of proteolytic activity in CP preparations or in cell culture media was done with resorufin-labeled casein (universal protease chromogenic substrate; Roche Diagnostics). Aliquots (100 μL) of CP solutions (about 13 mg/mL) or of culture media of cells after 24 h treatment with and without CP were incubated at 37° C. for various times (up to 22 h), with 50 μL of resorufin-labeled casein solution provided by the manufacturer and 50 μL of 0.2 M Tris-HCl, pH 7.8 containing 0.02 M CaCl2. The reaction was stopped by adding 480 μL of 5% trichloroacetic acid. After 10 min of incubation at 37° C. and 5 min of centrifugation, 400 μL of the resulting supernatants were mixed with 600 μL of 0.5 M Tris-HCl, pH 8.8, and absorbance read at 574 nm. Alternately, resorufin-labeled casein was added to culture media (50 μL substrate for each 150 μL supplemented NEUROBASAL™ medium) while cells were being treated with CP. Culture media were removed at various times (up to 24 h) and subjected to acid precipitation and spectrophotometric measurement as indicated above. Trypsin (10100 U BAEE/mg; Sigma-Aldrich) was used as a standard.

Data set [1] deals with P19 neurons. Nature of the data set: Inhibition of CP-induced neuronal aggregation. In kind it is cell-based, mouse. Particulars: for inhibition of CP-induced aggregation, inhibitors tested individually: 6-7 TIU/mL or half this concentration, 3.8 μM CP; for inhibition of CP-induced neuronal aggregation: 6-7 trypsin inhibitory U/mL each, added 1 h before 3.8 μM CP, morphology and dye penetration analysis. As to the method: Protease inhibitors were added 1 h before CP.
Day 4 P19 neurons were plated in 24- or 48-well plates in prevision of dye penetration analysis. After treatment with CP or other agents, cells were incubated for 5 h with 500 μL of a solution containing one part of ALAMARBLUE™ (Medicorp Inc., Montreal, Quebec, Canada) and nine parts of fresh supplemented Neurobasal medium. This dye is reduced to a fluorescent derivative by metabolic activity of living cells. At the end of incubation, the fluorescence of the culture medium was monitored at 590 nm, using 540 nm as the excitation wavelength.

The subject of data set [2] is P19 neurons. Nature of the data set: Pro-aggregative effect on P19 neurons (culture morphology, surfaces not occupied by cells). Particulars: for Morphological change: 24 h; for induction of neuronal aggregation (text summary of Table 1): concentrations of Table 1, copper equivalent to (His2Cu: or higher than) that in CP.
Experimental: Undifferentiated P19 cells were propagated in complete medium containing alpha-modified Eagle's minimal essential medium (α-MEM; Gibco-BRL, Burlington, Ontario) supplemented with 10% heat-inactivated fetal bovine serum (Cansera International, Rexdale, Ontario), 2.5 U/mL penicillin and 2.5 μg/mL streptomycin (Sigma-Aldrich). Cells were maintained at 37° C. in a humidified atmosphere of 5% CO2 and passaged every two days on non-coated tissue culture dishes. To achieve neuronal differentiation, P19 cells were seeded in bacteriological-grade petri dishes at a density of 0.9×10^5 cells/mL, and grown as aggregates, during 4 days, in complete medium containing 0.5 μM RA (Sigma-Aldrich). At day 4, aggregates were dissociated by incubation for 3 min, at room temperature, with 0.025% trypsin (250 Nα-benzoyl-L-Arg-ethyl ester (BAEE) unit per 15×10^6 cells; Sigma-Aldrich) in phosphate buffer saline (PBS) containing 1 mM EDTA, and digestion stopped by adding an equal volume of complete α-MEM medium. The resulting cellular suspensions were passaged by pipetting and subjected to two wash-and-centrifuge cycles, and individualized cells (neurons) were transferred (1500-1800 cells/mm^2) to gelatinized tissue culture dishes or multiwell plates containing NEUROBASAL™ medium (Gibco-BRL) supplemented with B27™ supplement (Gibco-BRL) and 0.5 mM L-glutamine, but no RA. Gelatinization of culture surfaces was done by incubation with 0.1% gelatin for 0.5 h at 22° C., followed by several washes with PBS to remove unbound protein. For comparison purposes, solutions of 2% gelatin, 10 μg/mL fibronectin, 10 μg/mL laminin and 5 mg/mL CP (in this case, in a proportion of 50 μL per cm^2) were also used for coating. Differentiation to fibroblasts was done by culturing P19 cells as monolayers, for 4 days, in complete medium containing RA. Cells were trypsinized every 2 days and replated in non-coated tissue culture dishes each time. From day 4 and after, cells were cultured in complete medium without RA.
At 3, 24 or 48 h after plating, P19 neurons were incubated for 24 h in a fresh provision of supplemented Neurobasal medium not containing (control) or containing CP or another agent. Protease inhibitors were added 1 h before CP. Freshly individualized cells of the other cell types tested were let to adhere to culture surfaces, in their normal culture medium (containing serum), for times indicated: undifferentiated P19 cells and their fibroblast derivatives (both for 3 and 24 h), rat smooth muscle cells (7 days), and rat hepatocytes (3 h). Afterwards, cells were extensively rinsed with PBS and incubated for 24 h in supplemented Neurobasal medium in the absence or presence of CP. After treatment with CP or other agents, cells were examined for morphology, viability, ALAMARBLUE™ dye penetration and/or apoptosis, as indicated below.
Morphological analysis was done by inversion microscopy (NIKKON™ TMS), using phase-contrast objectives and a camera (NIKKON™ F70).
[3] abbreviates: 1.14 to 49.2 μM, day 4 P19 neurons on gelatin.

With aprotinin, the “hydrolysis of resorufin-labeled casein” value with resorufin-labeled casein is listed as “completely abolished hydrolysis”. Besides, in the data set on P19 neurons [1], the “inhibition of CP-induced aggregation, inhibitors tested individually” value is recorded as “Complete inhibition of aggregation” and the “inhibition of CP-induced neuronal aggregation” value is recorded as “completely hindered”.

As to `O=S(=O)([O-])[O-].[Cu+2]` [CuSO4], the values for the Morphological change result with P19 neurons [2] (246 μM) and in the data set with P19 neurons [2] (setting [3]) were “cell death” and “no aggregation”, respectively. Also, the “induction of neuronal aggregation (text summary of Table 1)” value (“induction of neuronal aggregation” for short) in the data set with P19 neurons [2] is given as “did not induce neuronal aggregation”.

`NC(Cc1c[nH]cn1)C(=O)[O-].NC(Cc1c[nH]cn1)C(=O)[O-].[Cu+2]` (stereo not shown) [(His)2Cu complex]: the Morphological change entry in the data set with P19 neurons [2] (23 to 390 μM) is listed as “no aggregation”. Besides, the “induction of neuronal aggregation” value with P19 neurons [2] is on record as “did not induce neuronal aggregation”.

With “Bovine serum albumin: serum protein that can transport copper ions”, the Morphological change entry with P19 neurons [2] (0.3 to 7.5 μM) is “no aggregation”. In addition, the “induction of neuronal aggregation” value with P19 neurons [2] was “failed to induce-aggregation”. Also, the “inhibition of CP-induced neuroaggregation” value in the data set with P19 neurons [1] (albumin at 3.6 μM) is recorded as “did not inhibit”.

`[Cl][Cu][Cl]` [CuCI2, CuCl2]: the Morphological change entry in the data set with P19 neurons [2] (246 μM) is listed as “cell death”; in the data set with P19 neurons [2] (setting [3]) it was “no aggregation”. Moreover, the “induction of neuronal aggregation” value with P19 neurons [2] is listed as “did not induce neuronal aggregation”.

B1: Bovine serum amineoxidase: 180 kDa circulating non-blue copper protein (protein, UniProt Q29437 17-762, looked up)
Primary amine oxidase, liver …: REEGGVGSEEGVGKQCHPSLPPRCPSRSPSDQPWTHPDQSQLFADLSREELTTVMSFLTQQLGPDLVDAAQARPSDNCVFSVELQLPPKAAALAHLDRGSPPPAREALAIVFFGGQPQPNVTELVVGPLPQPSYMRDVTVERHGGPLPYYRRPVLLREYLDIDQMIFNRELPQAAGVLHHCCSYKQGGQKLLTMNSAPRGVQSGDRSTWFGIYYNITKGGPYLHPVGLELLVDHKALDPADWTVQKVFFQGRYYENLAQLEEQFEAGQVNVVVIPDDGTGGFWSLKSQVPPGPTPPLQFHPQGPRFSVQGNRVASSLWTFSFGLGAFSGPRVFDVRFQGERLAYEISLQEAGAVYGGNTPAAMLTRYMDSGFGMGYFATPLIRGVDCPYLATYMDWHFVVESQTPKTLHDAFCVFEQNKGLPLRRHHSDFLSHYFGGVAQTVLVFRSVSTMLNYDYVWDMVFYPNGAIEVKLHATGYISSAFLFGAARRYGNQVGEHTLGPVHTHSAHYKVDLDVGGLENWVWAEDMAFVPTAIPWSPEHQIQRLQVTRKQLETEEQAAFPLGGASPRYLYLASKQSNKWGHPRGYRIQTVSFAGGPMPQNSPMERAFSWGRYQLAITQRKETEPSSSSVFNQNDPWTPTVDFSDFINNETIAGKDLVAWVTAGFLHIPHAEDIPNTVTVGNGVGFFLRPYNFFDQEPSMDSADSIYFREGQDAGSCEINPLACLPQAATCAPDLPVFSHGGYPEY
As to B1, in the data set with P19 neurons [2] (0.28 to 0.56 μM), the Morphological change result was “no aggregation”. Moreover, the “induction of neuronal aggregation” value with P19 neurons [2] is “did not induce aggregation”.

B2: SBTI: soybean trypsin inhibitor, serine protease inhibitor (protein, UniProt P01070 25-205, looked up)
Trypsin inhibitor A: DFVLDNEGNPLENGGTYYILSDITAFGGIRAAPTGNERCPLTVVQSRNELDKGIGTIISSPYRIRFIAEGHPLSLKFDSFAVIMLCVGIPTEWSVVEDLPEGPAVKIGENKDAMDGWFRLERVSDDEFNNYKLVFCPQQAEDDKCGDIGISIDHDDGTRRLVVSKNKPLVVQFQKLDKESL
With B2, in the data set with resorufin-labeled casein, the “hydrolysis of resorufin-labeled casein” value is listed as “completely abolished hydrolysis”. In the data set on P19 neurons [1], the “inhibition of CP-induced aggregation, inhibitors tested individually” value was “Complete inhibition of aggregation” and the “inhibition of CP-induced neuronal aggregation” value was “completely hindered”.
